Measurements reported in ChEMBL document CHEMBL3991601, “The target landscape of clinical kinase drugs” (Science, 2017).
Active and inactive are the calls of the source.

Molecular target: T1, Activin receptor type-1B (Homo sapiens, UniProt P36896)
T1 sequence (P36896 whole entry): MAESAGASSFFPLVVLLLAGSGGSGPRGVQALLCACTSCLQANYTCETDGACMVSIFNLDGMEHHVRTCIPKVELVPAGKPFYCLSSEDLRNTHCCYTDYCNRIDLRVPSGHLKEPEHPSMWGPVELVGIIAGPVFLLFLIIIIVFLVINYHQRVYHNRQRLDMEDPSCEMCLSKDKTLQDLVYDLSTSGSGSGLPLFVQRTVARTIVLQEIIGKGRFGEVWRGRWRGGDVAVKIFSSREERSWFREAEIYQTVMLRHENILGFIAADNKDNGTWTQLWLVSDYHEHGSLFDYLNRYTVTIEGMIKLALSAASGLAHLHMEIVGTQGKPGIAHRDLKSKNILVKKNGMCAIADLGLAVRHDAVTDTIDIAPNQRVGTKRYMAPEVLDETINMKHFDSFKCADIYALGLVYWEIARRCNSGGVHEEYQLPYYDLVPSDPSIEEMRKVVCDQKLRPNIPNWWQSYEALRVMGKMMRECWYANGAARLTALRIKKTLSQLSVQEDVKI
Also: in the data inactive means no Kd found up to 30 µM.

SMILES | Kd
CC(C)Nc1cc(-c2c[nH]c(C(=O)N[C@H](CO)c3cccc(Cl)c3)c2)c(Cl)cn1 [ULIXERTINIB] | > 30 µM (inactive)

Molecular target: Serine/threonine-protein kinase MRCK alpha (Homo sapiens, UniProt Q5VT25)
Sequence (Q5VT25 whole entry): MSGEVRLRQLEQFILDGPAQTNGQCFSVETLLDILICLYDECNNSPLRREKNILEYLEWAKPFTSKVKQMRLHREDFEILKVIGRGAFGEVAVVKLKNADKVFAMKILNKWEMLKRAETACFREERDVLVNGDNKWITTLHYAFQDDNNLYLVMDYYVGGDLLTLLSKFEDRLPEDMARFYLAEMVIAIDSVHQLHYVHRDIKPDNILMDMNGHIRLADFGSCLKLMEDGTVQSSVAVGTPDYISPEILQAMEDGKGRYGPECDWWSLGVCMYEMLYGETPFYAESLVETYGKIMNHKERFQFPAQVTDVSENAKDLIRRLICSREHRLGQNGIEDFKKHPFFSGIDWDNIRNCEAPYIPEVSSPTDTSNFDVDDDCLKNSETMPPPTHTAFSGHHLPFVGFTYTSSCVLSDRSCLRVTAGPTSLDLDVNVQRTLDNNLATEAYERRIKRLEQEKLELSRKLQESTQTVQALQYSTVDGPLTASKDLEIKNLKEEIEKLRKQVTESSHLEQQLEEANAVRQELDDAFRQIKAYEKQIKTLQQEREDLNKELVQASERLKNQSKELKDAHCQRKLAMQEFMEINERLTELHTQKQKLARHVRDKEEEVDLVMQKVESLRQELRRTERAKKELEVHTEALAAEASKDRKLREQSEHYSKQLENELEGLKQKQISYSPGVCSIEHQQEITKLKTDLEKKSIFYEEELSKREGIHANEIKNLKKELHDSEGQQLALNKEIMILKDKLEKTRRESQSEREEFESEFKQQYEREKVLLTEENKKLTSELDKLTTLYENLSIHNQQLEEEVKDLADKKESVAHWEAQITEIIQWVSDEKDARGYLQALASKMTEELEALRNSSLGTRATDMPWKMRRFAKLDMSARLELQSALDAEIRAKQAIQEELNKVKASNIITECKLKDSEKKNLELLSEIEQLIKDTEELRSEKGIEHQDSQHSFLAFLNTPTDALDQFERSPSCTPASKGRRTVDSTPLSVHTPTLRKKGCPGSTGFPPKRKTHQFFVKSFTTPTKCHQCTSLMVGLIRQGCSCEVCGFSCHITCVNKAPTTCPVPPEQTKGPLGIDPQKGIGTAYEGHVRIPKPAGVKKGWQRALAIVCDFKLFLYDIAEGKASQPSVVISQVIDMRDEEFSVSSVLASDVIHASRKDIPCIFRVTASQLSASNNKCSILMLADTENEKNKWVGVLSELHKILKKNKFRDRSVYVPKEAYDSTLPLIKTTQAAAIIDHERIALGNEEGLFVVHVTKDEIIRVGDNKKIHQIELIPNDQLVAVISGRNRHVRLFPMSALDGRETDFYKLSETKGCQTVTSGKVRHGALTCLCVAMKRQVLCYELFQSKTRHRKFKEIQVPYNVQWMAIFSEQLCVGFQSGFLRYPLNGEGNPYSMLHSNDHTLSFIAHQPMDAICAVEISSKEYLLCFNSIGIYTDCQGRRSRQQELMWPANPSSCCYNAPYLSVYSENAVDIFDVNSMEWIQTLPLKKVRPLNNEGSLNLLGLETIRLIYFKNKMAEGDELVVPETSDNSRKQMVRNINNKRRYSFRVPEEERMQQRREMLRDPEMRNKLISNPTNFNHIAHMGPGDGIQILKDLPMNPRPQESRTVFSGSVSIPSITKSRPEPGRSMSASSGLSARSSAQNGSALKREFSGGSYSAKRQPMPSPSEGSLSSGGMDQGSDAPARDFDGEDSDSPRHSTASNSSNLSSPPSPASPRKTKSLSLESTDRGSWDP

SMILES | Kd
CC(C)Nc1cc(-c2c[nH]c(C(=O)N[C@H](CO)c3cccc(Cl)c3)c2)c(Cl)cn1 [ULIXERTINIB] | > 30 µM (inactive)

Molecular target: Casein kinase I isoform epsilon (Homo sapiens, UniProt P49674)
Sequence (P49674 whole entry, canonical isoform): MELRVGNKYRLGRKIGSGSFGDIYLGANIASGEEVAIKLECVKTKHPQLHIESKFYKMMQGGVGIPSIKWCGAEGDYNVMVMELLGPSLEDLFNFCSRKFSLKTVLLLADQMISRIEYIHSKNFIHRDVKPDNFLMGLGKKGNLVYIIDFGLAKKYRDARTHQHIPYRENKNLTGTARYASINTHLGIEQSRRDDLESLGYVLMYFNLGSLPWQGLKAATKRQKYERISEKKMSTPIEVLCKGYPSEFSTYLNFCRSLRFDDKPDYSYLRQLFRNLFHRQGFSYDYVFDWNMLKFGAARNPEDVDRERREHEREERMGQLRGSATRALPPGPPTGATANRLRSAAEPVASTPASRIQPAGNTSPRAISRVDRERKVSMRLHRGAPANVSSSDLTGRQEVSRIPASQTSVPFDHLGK

SMILES | Kd
CC(C)Nc1cc(-c2c[nH]c(C(=O)N[C@H](CO)c3cccc(Cl)c3)c2)c(Cl)cn1 [ULIXERTINIB] | > 30 µM (inactive)

Molecular target: Eukaryotic translation initiation factor 2-alpha kinase 1 (Homo sapiens, UniProt Q9BQI3)
Sequence (Q9BQI3 whole entry): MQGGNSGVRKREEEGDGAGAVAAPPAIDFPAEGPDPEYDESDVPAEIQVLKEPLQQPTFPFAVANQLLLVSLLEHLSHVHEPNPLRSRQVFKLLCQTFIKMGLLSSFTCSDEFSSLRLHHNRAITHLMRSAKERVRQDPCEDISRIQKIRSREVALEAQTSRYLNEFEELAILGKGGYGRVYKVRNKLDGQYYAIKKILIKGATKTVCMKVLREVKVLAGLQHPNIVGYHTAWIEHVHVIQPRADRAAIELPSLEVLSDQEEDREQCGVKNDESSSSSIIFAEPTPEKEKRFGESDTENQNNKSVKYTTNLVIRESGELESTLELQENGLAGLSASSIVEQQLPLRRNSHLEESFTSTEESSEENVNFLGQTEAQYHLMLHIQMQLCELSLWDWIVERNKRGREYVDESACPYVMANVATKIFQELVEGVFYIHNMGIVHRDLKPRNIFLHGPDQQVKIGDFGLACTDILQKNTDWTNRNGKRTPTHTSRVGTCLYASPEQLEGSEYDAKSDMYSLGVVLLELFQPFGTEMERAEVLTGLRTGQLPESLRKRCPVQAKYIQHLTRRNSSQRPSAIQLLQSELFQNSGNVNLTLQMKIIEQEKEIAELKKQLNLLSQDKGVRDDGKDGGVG

SMILES | Kd
CC(C)Nc1cc(-c2c[nH]c(C(=O)N[C@H](CO)c3cccc(Cl)c3)c2)c(Cl)cn1 [ULIXERTINIB] | > 30 µM (inactive)

Molecular target: Tyrosine-protein kinase FRK (Homo sapiens, UniProt P42685)
Sequence (P42685 whole entry): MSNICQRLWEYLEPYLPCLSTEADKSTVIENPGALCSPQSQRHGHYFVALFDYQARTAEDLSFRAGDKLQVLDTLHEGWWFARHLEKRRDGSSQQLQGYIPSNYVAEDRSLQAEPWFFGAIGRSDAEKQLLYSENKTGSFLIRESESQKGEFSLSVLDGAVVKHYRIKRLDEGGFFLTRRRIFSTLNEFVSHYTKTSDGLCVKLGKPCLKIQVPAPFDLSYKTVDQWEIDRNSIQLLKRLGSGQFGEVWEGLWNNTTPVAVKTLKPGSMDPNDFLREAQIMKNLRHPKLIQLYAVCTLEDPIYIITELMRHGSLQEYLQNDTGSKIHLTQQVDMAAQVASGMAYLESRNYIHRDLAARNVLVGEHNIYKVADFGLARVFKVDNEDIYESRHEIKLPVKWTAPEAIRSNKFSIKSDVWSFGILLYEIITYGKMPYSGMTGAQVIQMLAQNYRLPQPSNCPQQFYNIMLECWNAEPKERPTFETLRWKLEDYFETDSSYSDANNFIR

SMILES | Kd
CC(C)Nc1cc(-c2c[nH]c(C(=O)N[C@H](CO)c3cccc(Cl)c3)c2)c(Cl)cn1 [ULIXERTINIB] | > 30 µM (inactive)

Molecular target: Mitogen-activated protein kinase 9 (Homo sapiens, UniProt P45984)
Sequence (P45984 whole entry): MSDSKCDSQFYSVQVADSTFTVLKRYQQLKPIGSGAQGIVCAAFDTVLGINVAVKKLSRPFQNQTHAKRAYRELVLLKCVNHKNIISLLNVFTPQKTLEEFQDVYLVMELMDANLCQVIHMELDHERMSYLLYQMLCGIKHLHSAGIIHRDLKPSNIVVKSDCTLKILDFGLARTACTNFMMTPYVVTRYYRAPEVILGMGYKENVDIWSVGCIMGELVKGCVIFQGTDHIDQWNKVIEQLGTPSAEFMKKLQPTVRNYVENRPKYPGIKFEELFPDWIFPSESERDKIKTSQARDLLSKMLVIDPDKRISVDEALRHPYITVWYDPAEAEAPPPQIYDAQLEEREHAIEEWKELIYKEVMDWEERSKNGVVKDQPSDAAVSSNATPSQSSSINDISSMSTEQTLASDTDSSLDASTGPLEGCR

SMILES | Kd
CC(C)Nc1cc(-c2c[nH]c(C(=O)N[C@H](CO)c3cccc(Cl)c3)c2)c(Cl)cn1 [ULIXERTINIB] | > 30 µM (inactive)

Molecular target: NADH dehydrogenase [ubiquinone] 1 alpha subcomplex subunit 13 (Homo sapiens, UniProt Q9P0J0)
Sequence (Q9P0J0 whole entry, one chain of several): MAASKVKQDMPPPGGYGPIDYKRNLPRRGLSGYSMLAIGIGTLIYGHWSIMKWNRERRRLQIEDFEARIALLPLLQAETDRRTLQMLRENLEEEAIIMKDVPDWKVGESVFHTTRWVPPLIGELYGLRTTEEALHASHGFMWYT

SMILES | Kd
CN1CCN(c2ccc3nc(-c4c(N)c5c(F)cccc5[nH]c4=O)[nH]c3c2)CC1 [DOVITINIB] | > 30 µM (inactive)
CCn1c(-c2nonc2N)nc2c(C#CC(C)(C)O)ncc(OC[C@H]3CCCNC3)c21 [GSK-690693] | > 30 µM (inactive)
Cc1cn(-c2cc(NC(=O)c3ccc(C)c(Nc4nccc(-c5cccnc5)n4)c3)cc(C(F)(F)F)c2)cn1 [NILOTINIB] | > 30 µM (inactive)
Nc1nc(N)c2nc(-c3cccc(O)c3)c(-c3cccc(O)c3)nc2n1 [TG100-115] | > 30 µM (inactive)
CC(C)Nc1cc(-c2c[nH]c(C(=O)N[C@H](CO)c3cccc(Cl)c3)c2)c(Cl)cn1 [ULIXERTINIB] | > 30 µM (inactive)

Molecular target: T2, Serine/threonine-protein kinase NLK (Homo sapiens, UniProt Q9UBE8)
T2 sequence (Q9UBE8 whole entry): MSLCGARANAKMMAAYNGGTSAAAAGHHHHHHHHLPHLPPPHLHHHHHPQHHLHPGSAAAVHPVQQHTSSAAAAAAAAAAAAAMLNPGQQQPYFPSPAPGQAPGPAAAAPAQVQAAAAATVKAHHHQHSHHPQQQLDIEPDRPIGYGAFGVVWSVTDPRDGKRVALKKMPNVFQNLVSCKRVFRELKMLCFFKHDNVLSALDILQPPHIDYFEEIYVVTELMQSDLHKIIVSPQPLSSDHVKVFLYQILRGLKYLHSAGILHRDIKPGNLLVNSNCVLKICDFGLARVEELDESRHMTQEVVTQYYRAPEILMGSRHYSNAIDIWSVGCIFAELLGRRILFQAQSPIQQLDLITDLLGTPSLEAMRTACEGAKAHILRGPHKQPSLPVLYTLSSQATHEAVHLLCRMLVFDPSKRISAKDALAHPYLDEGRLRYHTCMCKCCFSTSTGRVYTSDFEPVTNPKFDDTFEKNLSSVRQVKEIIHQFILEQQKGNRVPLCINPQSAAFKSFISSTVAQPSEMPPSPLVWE

SMILES | Kd
CC(C)Nc1cc(-c2c[nH]c(C(=O)N[C@H](CO)c3cccc(Cl)c3)c2)c(Cl)cn1 [ULIXERTINIB] | > 30 µM (inactive)

Molecular target: Serine/threonine-protein kinase N1 (Homo sapiens, UniProt Q16512)
Sequence (Q16512 whole entry): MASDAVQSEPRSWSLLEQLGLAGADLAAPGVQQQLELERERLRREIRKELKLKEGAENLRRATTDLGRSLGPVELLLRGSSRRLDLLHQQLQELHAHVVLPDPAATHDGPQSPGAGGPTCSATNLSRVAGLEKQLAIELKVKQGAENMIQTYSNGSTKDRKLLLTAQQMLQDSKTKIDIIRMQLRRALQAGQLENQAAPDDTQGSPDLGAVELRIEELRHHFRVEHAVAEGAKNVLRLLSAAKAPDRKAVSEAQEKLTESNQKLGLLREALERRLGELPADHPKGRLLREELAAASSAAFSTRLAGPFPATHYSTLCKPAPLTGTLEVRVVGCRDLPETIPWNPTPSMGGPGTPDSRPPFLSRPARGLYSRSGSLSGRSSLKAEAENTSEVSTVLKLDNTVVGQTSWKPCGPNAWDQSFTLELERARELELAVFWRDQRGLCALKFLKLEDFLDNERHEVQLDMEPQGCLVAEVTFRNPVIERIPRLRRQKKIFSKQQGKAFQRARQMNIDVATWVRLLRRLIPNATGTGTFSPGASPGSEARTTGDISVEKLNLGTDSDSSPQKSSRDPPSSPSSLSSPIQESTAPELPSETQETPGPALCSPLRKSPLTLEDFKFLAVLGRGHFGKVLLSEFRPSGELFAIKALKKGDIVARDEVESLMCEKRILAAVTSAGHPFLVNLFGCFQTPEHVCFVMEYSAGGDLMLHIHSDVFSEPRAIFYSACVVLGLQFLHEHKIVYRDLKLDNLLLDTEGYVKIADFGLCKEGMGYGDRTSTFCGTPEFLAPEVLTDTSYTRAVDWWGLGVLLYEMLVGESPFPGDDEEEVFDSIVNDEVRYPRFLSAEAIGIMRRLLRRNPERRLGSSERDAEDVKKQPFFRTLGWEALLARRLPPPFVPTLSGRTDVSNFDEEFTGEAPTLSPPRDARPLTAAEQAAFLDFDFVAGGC

SMILES | Kd
CC(C)Nc1cc(-c2c[nH]c(C(=O)N[C@H](CO)c3cccc(Cl)c3)c2)c(Cl)cn1 [ULIXERTINIB] | > 30 µM (inactive)

Molecular target: T3, Septin-9 (Homo sapiens, UniProt Q9UHD8)
T3 sequence (Q9UHD8 whole entry): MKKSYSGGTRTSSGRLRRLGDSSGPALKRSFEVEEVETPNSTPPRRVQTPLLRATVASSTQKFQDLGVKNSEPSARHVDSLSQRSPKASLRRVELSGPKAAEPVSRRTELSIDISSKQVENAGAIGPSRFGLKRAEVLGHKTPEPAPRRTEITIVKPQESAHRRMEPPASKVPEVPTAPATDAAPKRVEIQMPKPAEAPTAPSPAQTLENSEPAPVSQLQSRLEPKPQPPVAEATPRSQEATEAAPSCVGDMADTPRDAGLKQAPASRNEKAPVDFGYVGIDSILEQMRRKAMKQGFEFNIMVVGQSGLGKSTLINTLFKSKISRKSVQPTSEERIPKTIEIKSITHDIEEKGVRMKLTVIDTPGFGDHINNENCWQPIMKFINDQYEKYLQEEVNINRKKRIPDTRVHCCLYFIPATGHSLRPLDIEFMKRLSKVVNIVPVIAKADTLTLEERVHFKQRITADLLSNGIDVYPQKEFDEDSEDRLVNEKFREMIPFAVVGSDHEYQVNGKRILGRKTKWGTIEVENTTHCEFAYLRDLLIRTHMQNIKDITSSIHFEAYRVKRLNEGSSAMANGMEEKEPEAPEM

SMILES | Kd
CN1CCN(c2ccc3nc(-c4c(N)c5c(F)cccc5[nH]c4=O)[nH]c3c2)CC1 [DOVITINIB] | > 30 µM (inactive)
CCn1c(-c2nonc2N)nc2c(C#CC(C)(C)O)ncc(OC[C@H]3CCCNC3)c21 [GSK-690693] | > 30 µM (inactive)
Cc1cn(-c2cc(NC(=O)c3ccc(C)c(Nc4nccc(-c5cccnc5)n4)c3)cc(C(F)(F)F)c2)cn1 [NILOTINIB] | > 30 µM (inactive)
Nc1nc(N)c2nc(-c3cccc(O)c3)c(-c3cccc(O)c3)nc2n1 [TG100-115] | > 30 µM (inactive)
CC(C)Nc1cc(-c2c[nH]c(C(=O)N[C@H](CO)c3cccc(Cl)c3)c2)c(Cl)cn1 [ULIXERTINIB] | > 30 µM (inactive)

Molecular target: Elongation factor Tu, mitochondrial (Homo sapiens, UniProt P49411)

SMILES | Kd
CN1CCN(c2ccc3nc(-c4c(N)c5c(F)cccc5[nH]c4=O)[nH]c3c2)CC1 [DOVITINIB] | > 30 µM (inactive)
CCn1c(-c2nonc2N)nc2c(C#CC(C)(C)O)ncc(OC[C@H]3CCCNC3)c21 [GSK-690693] | > 30 µM (inactive)
Cc1cn(-c2cc(NC(=O)c3ccc(C)c(Nc4nccc(-c5cccnc5)n4)c3)cc(C(F)(F)F)c2)cn1 [NILOTINIB] | > 30 µM (inactive)
Nc1nc(N)c2nc(-c3cccc(O)c3)c(-c3cccc(O)c3)nc2n1 [TG100-115] | > 30 µM (inactive)
CC(C)Nc1cc(-c2c[nH]c(C(=O)N[C@H](CO)c3cccc(Cl)c3)c2)c(Cl)cn1 [ULIXERTINIB] | > 30 µM (inactive)
